Measurements taken from ChEMBL document CHEMBL5325413, “Optimization of BAX trigger site activator BTSA1 with improved antitumor potency and in vitro ADMET properties” (Eur J Med Chem, 2023).
Active and inactive are the calls of the source. The rule behind the calls is not given here.

Legend:
[1] = molecular target: Apoptosis regulator BAX (Homo sapiens) (UniProt Q07812); test: Activation of BAX in human A549 cells assessed as protein translocation by measuring increase in BAX protein level in mitochondrial fraction incubated for 24 hrs by Western blot analysis; type: mitochondria; conditions: filed as activator, dose 5-40 µM
Apoptosis regulator BAX (Homo sapiens), sequence (Q07812 whole entry): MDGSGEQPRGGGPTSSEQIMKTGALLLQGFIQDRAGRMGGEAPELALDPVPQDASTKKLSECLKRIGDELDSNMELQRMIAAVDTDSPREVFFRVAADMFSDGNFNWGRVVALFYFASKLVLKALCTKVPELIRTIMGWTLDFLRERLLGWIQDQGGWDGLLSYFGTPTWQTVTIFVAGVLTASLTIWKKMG

[2] = Stability in rat plasma assessed as compound remaining measured immediately; type: ADME, cell-free; conditions: read-out: Stability
Cytochrome P450 3A4 = Cytochrome P450 3A4 (Homo sapiens, UniProt P08684); test: Inhibition of CYP3A4 in human liver microsomes using midazolam as substrate prewarmed for 10 mins followed by NADPH addition and measured after 10 mins by LC-MS/MS analysis
Cytochrome P450 3A4, sequence (P08684 whole entry): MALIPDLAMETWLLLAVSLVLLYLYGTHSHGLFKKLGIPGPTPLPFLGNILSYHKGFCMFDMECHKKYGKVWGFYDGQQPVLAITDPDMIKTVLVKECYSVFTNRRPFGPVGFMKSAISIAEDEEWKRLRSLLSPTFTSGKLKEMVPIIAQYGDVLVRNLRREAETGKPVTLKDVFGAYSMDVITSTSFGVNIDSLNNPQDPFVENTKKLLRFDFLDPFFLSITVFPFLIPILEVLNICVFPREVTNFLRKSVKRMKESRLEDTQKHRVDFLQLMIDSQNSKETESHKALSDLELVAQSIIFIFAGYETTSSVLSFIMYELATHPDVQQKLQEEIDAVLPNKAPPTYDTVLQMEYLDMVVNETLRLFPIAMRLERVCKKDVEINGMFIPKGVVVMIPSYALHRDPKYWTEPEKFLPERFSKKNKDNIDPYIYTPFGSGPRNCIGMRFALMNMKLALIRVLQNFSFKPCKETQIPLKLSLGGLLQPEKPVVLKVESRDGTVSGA

A549 [3] = test: Induction of apoptosis in human A549 cells assessed as cell rounding at 2.5 to 10 uM incubated for 48 hrs by Hoechst 33342 staining based fluorescence microscopic analysis; type: functional; conditions: dose 2.5-10 µM
[4] = Stability in rat plasma assessed as half life; type: ADME, cell-free
A549 [5] = test: Induction of cell cycle arrest in human A549 cells assessed as accumulation of cells at G0/G1 phase at 2.5 uM incubated for 48 hrs by RNase/PI staining based flow cytometry analysis (reference value: 54.82%); type: functional
[6] = Drug recovery in human liver microsomes at 100 uM incubated for 60 mins in absence of NADPH by LC-MS/MS analysis; type: ADME, Microsome; conditions: read-out: Drug recovery
MV4-11 = test: Antiproliferative activity against human MV4-11 cells expressing BAX assessed as cell growth inhibition incubated for 72 hrs by trypan blue cell counting analysis; type: functional
A549 [7] = test: Induction of apoptosis in human A549 cells assessed as early apoptotic cells at 10 uM incubated for 48 hrs by Annexin V-FITC/PI staining based flow cytometry analysis (reference value: 1.09 %); type: functional
Cytochrome P450 2C19 = Cytochrome P450 2C19 (Homo sapiens, UniProt P33261); test: Inhibition of CYP2C19 in human liver microsomes using S-mephenytoin as substrate prewarmed for 10 mins followed by NADPH addition and measured after 10 mins by LC-MS/MS analysis
Cytochrome P450 2C19, sequence (P33261 whole entry): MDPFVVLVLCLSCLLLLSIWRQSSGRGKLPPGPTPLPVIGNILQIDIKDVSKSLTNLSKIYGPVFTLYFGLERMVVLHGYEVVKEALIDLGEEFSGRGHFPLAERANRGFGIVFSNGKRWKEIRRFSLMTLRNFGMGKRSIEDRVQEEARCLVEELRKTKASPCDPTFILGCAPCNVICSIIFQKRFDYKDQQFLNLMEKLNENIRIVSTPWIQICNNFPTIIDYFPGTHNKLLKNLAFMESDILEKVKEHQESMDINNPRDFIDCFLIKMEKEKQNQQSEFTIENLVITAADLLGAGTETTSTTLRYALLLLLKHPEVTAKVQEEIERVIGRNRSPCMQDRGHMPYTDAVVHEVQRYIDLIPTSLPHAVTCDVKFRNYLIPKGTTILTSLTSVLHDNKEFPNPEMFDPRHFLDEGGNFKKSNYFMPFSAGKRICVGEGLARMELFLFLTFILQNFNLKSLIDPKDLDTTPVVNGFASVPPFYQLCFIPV

Cytochrome P450 1A2 = molecular target: T1, Cytochrome P450 1A2 (Homo sapiens, UniProt P05177); test: Inhibition of CYP1A2 in human liver microsomes using phenacetin as substrate prewarmed for 10 mins followed by NADPH addition and measured after 10 mins by LC-MS/MS analysis
T1 sequence (P05177 whole entry): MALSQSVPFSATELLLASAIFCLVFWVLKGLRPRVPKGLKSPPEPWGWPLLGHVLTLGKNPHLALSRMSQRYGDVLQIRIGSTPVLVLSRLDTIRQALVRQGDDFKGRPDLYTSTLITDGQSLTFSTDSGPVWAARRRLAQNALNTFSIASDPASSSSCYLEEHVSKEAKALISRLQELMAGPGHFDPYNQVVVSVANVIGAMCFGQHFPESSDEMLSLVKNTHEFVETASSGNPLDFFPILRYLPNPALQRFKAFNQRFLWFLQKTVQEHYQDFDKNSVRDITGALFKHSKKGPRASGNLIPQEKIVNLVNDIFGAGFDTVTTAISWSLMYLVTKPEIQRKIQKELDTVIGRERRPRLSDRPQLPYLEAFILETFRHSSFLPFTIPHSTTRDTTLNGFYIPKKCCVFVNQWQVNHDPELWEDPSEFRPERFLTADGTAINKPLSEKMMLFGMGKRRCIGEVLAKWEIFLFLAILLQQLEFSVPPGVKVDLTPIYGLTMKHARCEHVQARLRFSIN

A549 [8] = test: Induction of apoptosis in human A549 cells assessed as formation of apoptotic bodies at 2.5 to 10 uM incubated for 48 hrs by Hoechst 33342 staining based fluorescence microscopic analysis; type: functional, cell-based; conditions: dose 2.5-10 µM
A549 [9] = test: Induction of apoptosis in human A549 cells assessed as dead cells at 10 uM incubated for 48 hrs by Annexin V-FITC/PI staining based flow cytometry analysis (reference value: 0.535%); type: functional
A549 [10] = test: Induction of apoptosis in human A549 cells assessed as late apoptotic cells at 10 uM incubated for 48 hrs by Annexin V-FITC/PI staining based flow cytometry analysis (reference value: 2.15%); type: functional
A549 [11] = test: Induction of apoptosis in human A549 cells assessed as live cells at 10 uM incubated for 48 hrs by Annexin V-FITC/PI staining based flow cytometry analysis (reference value: 96.4%); type: functional
[12] = Stability in rat plasma assessed as compound remaining measured after 30 mins; type: ADME, cell-free; conditions: read-out: Stability
A549 [13] = test: Inhibition of colony formation in human A549 cells at 3 uM incubated for 2 weeks by crystal violet staining based analysis relative to control; type: functional; conditions: A549, 336 h
[14] = molecular target: Apoptosis regulator BAX (Homo sapiens) (UniProt Q07812); test: Activation of BAX in human A549 cells assessed as increase in cytochrome-c release incubated for 24 hrs by Western blot analysis; type: cell-based; conditions: filed as activator, dose 5-40 µM
[15] = Stability in rat plasma assessed as compound remaining measured after 60 mins; type: ADME, cell-free; conditions: read-out: Stability
[16] = human, 1 h, 100 µM
[17] = molecular target: Apoptosis regulator BAX (Homo sapiens) (UniProt Q07812); test: Activation of BAX in human A549 cells at 20 uM incubated for 24 hrs by NP-40 based immunoprecipitation analysis; type: cell-based; conditions: filed as activator
A549 [18] = test: Inhibition of colony formation in human A549 cells incubated for 2 weeks by crystal violet staining based analysis; type: functional, cell-based; conditions: dose 1-3 µM
[19] = Stability in rat plasma assessed as compound remaining measured after 120 mins; type: ADME, cell-free; conditions: read-out: Stability
HCT-116 = test: Antiproliferative activity against human HCT-116 cells assessed as cell growth inhibition incubated for 72 hrs by MTT assay; type: functional
A549 [20] = test: Induction of apoptosis in human A549 cells assessed as nuclear fragmentation at 2.5 to 10 uM incubated for 48 hrs by Hoechst 33342 staining based fluorescence microscopic analysis; type: functional, cell-based; conditions: dose 2.5-10 µM

CN(C)C1CCN(C(=O)c2ccc(N3N=C(c4ccccc4)/C(=N/Nc4ccccc4)C3=O)cc2)CC1
Activity [1]: Dose-Dependent Effect | remaining at 0 min [2]: 100% | IC50 (Cytochrome P450 3A4): > 50 µM | Activity (A549 [3]): Active | half-life [4]: > 4.82 h | Activity (A549 [5]): 58.46% | remaining at 1 h, 100 µM [6]: 102% | GI50 (MV4-11): 2.84 µM | Activity (A549 [7]): 55% | IC50 (Cytochrome P450 2C19): > 50 µM | IC50 (Cytochrome P450 1A2): > 50 µM | Activity (A549 [8]): Active | Activity (A549 [9]): 0.583% | Activity (A549 [10]): 22.5% | Activity (A549 [11]): 95.9% | remaining at 0.5 h [12]: 99.1% | inhibition at 3 µM (A549 [13]): > 50% | Activity [14]: Dose-Dependent Effect | remaining at 1 h [15]: 94.8% | CLH [16]: < 8.6 mL/min/kg | Activity [17]: Active | inhibition (A549 [18]): Dose-Dependent Effect | remaining at 2 h [19]: 92.9% | GI50 (HCT-116): 3.31 µM | Activity (A549 [20]): Active
